Measured values taken from the NIST ThermoML archive (doi:10.1016/j.tca.2015.01.003).
Numbers after ± are expanded uncertainties.

Experiment: wn = mass fraction of the nth substance listed
Conditions: 288.15 K, 100 kPa, Liquid, Vibrating tube method

Row | SMILES | mass density (w1 = 0.0924) [kg/m3] | mass density (w1 = 0.2601) [kg/m3]
1 | O=S(=O)([O-])[O-].[K+].[K+] [potassium sulfate] + O | 1077.03 ± 1.2 | 
2 | O=S(=O)([O-])[O-].[Li+].[Li+] [lithium sulfate] + O |  | 1237.48 ± 1.6
